Reference: US3996359A, “Novel stereoisomeric component A of stereoisomeric mixtures of 2'-unsymmetrical 16,17-methylenedioxy steroid 21-acylates, compositions thereof, and method of treating therewith” (AB Bofors, priority 1972, dated 1976)

Tested on: rats subjected to adrenalectomy (granuloma around implanted cotton wads)
Test: granulom test (cotton-pellet test) on rats subjected to adrenalectomy: granuloma growth, thymus weight, body weight increase
Type: in vivo, rat (Sprague-Dawley)
Details: for Dose required to obtain 50% inhibition of Granuloma growth: Table 3, adrenalectomized young male Sprague-Dawley rats, topical in implanted cotton wads, day 8; for Dose required to obtain 25% inhibition of Body weight Increase / Dose required to obtain 50% inhibition of Thymus weight: 11520 min
Description: In the following this active stereoisomeric component will always be designated B. As regards the steroids referred to in connection with the present invention the stereoisomeric mixture as well as the individual stereoisomeric components A and B have been investigated with regard to antiinflammatory activity in granulom test on rats subjected to adrenalectomy. The experimental procedure used corresponds largely to that described by G. Engelhardt: Arzneimittel-Forschung, 13, p. 588, 1963. According to this procedure the test substances are applied topically in the implanted cottom wads. It is thereby possible to study the local antiinflammatory effect in granulomas and also systemic effects in the form of retrogression of thymus and inhibition of bodyweight growth.
Young male rats of the Sprague-Dawley strain weighing about 110-130 g were subjected to adrenalectomy under ether narcosis. Two sterilized cottom wads of each about 6 mg were implanted simultaneously subcutaneously on the lateral side of the spinal. After awakening the animals were stored 5 per cage and were supplied with normal food and 1% sodium chloride solution as drinking water. On the eighth test day the animals were sacrificed by ether narcosis. The granuloma formed around the cotton wads were carefully recovered and thymus and body weights were measured. The two granuloma from each animal were dried over night at 80° C and weighed. After subtraction of the initial weight of the cotton wads the weight increase was used as a measure of the granulom growth.
The test substances were used dissolved in ethyl acetate. Under aseptic conditions 0.05 ml of said solutions were injected into each of the cotton wads, whereafter the solvent was allowed to evaporate in the desiccator. Normally 3 concentrations of each test substance with the standard doses 3.3, 30 and 270 γ/animal were investigated. Each test group normally comprised 10 rats. The cotton wads of the control group were injected with only ethyl acetate, but were in other respects treated in the same way. When considering the effects of the test substances the average values of granulom growth, thymus weight and body weight increase day 0-8 were measured in each group in absolute figures and in % of the corresponding figure of the control group. Dose-response curves were drafted and used for estimating the doses giving 50 % reduction of granulom growth and of thymus weight and 25 % decrease of body weight increase.
The following Table 4 discloses the results of the cotton-pellet test hereinbefore described, giving in addition figures for the therapeutic ratios, that is, the ratios of the ED50 for thymus weight inhibition divided by the ED50 for granuloma formation inhibition, and the ED25 for body weight increase inhibition over the ED50 for granuloma formation inhibition. As will be recognized, the higher the number for the therapeutic ratio, the more favorable the therapeutic ratio. […] As will be noted for the table, the therapeutic ratio for thymus over granuloma for the Component A esters is 4.2, 7.1, 4.5, 2.6, 2.2, 1.7, 2.5 and 1.7 times as good as it is for the corresponding Component B ester isomer, whereas the therapeutic ratio for the Component A ester isomer as far as body weight is granuloma 2.7, 3.3, 9.8, 6.4, 2.3, 2.8, 3.3 and 2.8 times as favorable as for the corresponding Component B ester isomer.

SMILES | Dose required to obtain 50% inhibition of Granuloma growth | Dose required to obtain 25% inhibition of Body weight Increase (rat, in vivo) | Dose required to obtain 50% inhibition of Thymus weight (rat, in vivo) | ED25 body weight increase inhibition (rat, in vivo) [µg/animal] | ED50 thymus weight inhibition (rat, in vivo) [µg/animal] | Therapeutic ratio body weight/granuloma (rat, in vivo) | Therapeutic ratio thymus/granuloma (rat, in vivo) | Therapeutic ratio body weight/granuloma (Table 4, ED25 body weight increase inhibition over ED50 granuloma formation inhibition) | Therapeutic ratio thymus/granuloma (Table 4, ED50 thymus weight inhibition divided by ED50 granuloma formation inhibition) | decrease of body weight growth at the dose giving 50% inhibition of granulom growth (rat, in vivo) | decrease of thymus weight at the dose giving 50% inhibition of granulom growth (rat, in vivo)
CCCC1OC2CC3C4CCC5=CC(=O)C=CC5(C)C4(F)C(O)CC3(C)C2(C(=O)COC(=O)c2cccnc2)O1 (mixture of isomers) [21 A+B] | 7 γ/animal | 10 γ/animal | 35 γ/animal | – | – | – | – | – | – | – | –
CCCC1O[C@@H]2C[C@H]3[C@@H]4CCC5=CC(=O)C=C[C@]5(C)[C@H]4[C@@H](O)C[C@]3(C)[C@]2(C(=O)CO)O1 (single isomer, unassigned) [12 A] | 125 γ/animal | > 270 γ/animal | 125 γ/animal | – | – | – | – | – | – | – | –
CCCCC1O[C@@H]2C[C@H]3[C@@H]4CCC5=CC(=O)C=C[C@]5(C)[C@@]4(F)[C@@H](O)C[C@]3(C)[C@]2(C(=O)CO)O1 (single isomer, unassigned) [4 A] | < 3 γ/animal | 170 γ/animal | 100 γ/animal | – | – | – | – | – | – | – | –
CCCC1O[C@@H]2C[C@H]3[C@@H]4CCC5=CC(=O)C=C[C@]5(C)[C@H]4[C@@H](O)C[C@]3(C)[C@]2(C(=O)COC(C)=O)O1 (single isomer, unassigned) [27 A] | < 3 γ/animal | 100 γ/animal | 100 γ/animal | 100 | 100 | > 33.3 | > 33.3 | – | – | – | –
CCCCCC1O[C@@H]2C[C@H]3[C@@H]4CCC5=CC(=O)C=C[C@]5(C)[C@H]4[C@@H](O)C[C@]3(C)[C@]2(C(=O)CO)O1 (some centres unmarked) [13 A+B] | 10 γ/animal | 90 γ/animal | 175 γ/animal | – | – | – | – | – | – | – | –
CCCC1O[C@@H]2C[C@H]3[C@@H]4CCC5=CC(=O)C=C[C@]5(C)[C@@]4(F)[C@@H](O)C[C@]3(C)[C@]2(C(=O)CO)O1 (single isomer, unassigned) [3 A] | 25 γ/animal | > 30 γ/animal | > 30 γ/animal | – | – | – | – | – | – | – | –
CCCC1O[C@@H]2C[C@H]3[C@@H]4C[C@H](F)C5=CC(=O)C=C[C@]5(C)[C@@]4(F)[C@@H](O)C[C@]3(C)[C@]2(C(=O)COC(=O)c2cc3ccccc3o2)O1 (single isomer, unassigned) [25 B] | < 3 γ/animal | 20 γ/animal | 7 γ/animal | 20 | 7 | > 2.9 | > 2.3 | – | – | – | –
CCCCC(=O)OCC(=O)[C@@]12OC(CCC)O[C@@H]1C[C@H]1[C@@H]3CCC4=CC(=O)C=C[C@]4(C)[C@@]3(F)[C@@H](O)C[C@@]12C (single isomer, unassigned) [22 B] | < 3 γ/animal | 5 γ/animal | 35 γ/animal | 3 | 35 | > 1.7 | > 11.7 | – | – | – | –
CCCC1OC2CC3C4CCC5=CC(=O)C=CC5(C)C4C(O)CC3(C)C2(C(=O)COC(C)=O)O1 (mixture of isomers) [27 A+B] | < 3 γ/animal | 40 γ/animal | 60 γ/animal | – | – | – | – | – | – | – | –
CC1O[C@@H]2C[C@H]3[C@@H]4C[C@H](F)C5=CC(=O)C=C[C@]5(C)[C@@]4(F)[C@@H](O)C[C@]3(C)[C@]2(C(=O)COC(=O)c2cc3ccccc3o2)O1 (some centres unmarked) [23 B] | – | – | – | 3 | 4 | – | – | > 1.0 | > 1.3 | – | –
CCCCCC1OC2CC3C4CCC5=CC(=O)C=CC5(C)C4(F)C(O)CC3(C)C2(C(=O)CO)O1 (mixture of isomers) [5 A+B] | 17 γ/animal | > 270 γ/animal | 130 γ/animal | – | – | – | – | – | – | – | –
CCCCCC1O[C@@H]2C[C@H]3[C@@H]4CCC5=CC(=O)C=C[C@]5(C)[C@H]4[C@@H](O)C[C@]3(C)[C@]2(C(=O)CO)O1 (single isomer, unassigned) [13 B] | 5 γ/animal | > 270 γ/animal | 210 γ/animal | – | – | – | – | – | – | – | –
CCCCCC1O[C@@H]2C[C@H]3[C@@H]4CCC5=CC(=O)C=C[C@]5(C)[C@H]4[C@@H](O)C[C@]3(C)[C@]2(C(=O)CO)O1 (single isomer, unassigned) [13 A] | 8 γ/animal | 100 γ/animal | > 270 γ/animal | – | – | – | – | – | – | – | –
CCCC1O[C@@H]2C[C@H]3[C@@H]4CCC5=CC(=O)C=C[C@]5(C)[C@H]4[C@@H](O)C[C@]3(C)[C@]2(C(=O)CO)O1 (single isomer, unassigned) [12 B] | 40 γ/animal | 50 γ/animal | 70 γ/animal | – | – | – | – | – | – | – | –
CCCCC1O[C@@H]2C[C@H]3[C@@H]4CCC5=CC(=O)C=C[C@]5(C)[C@@]4(F)[C@@H](O)C[C@]3(C)[C@]2(C(=O)CO)O1 (single isomer, unassigned) [4 B] | < 3 γ/animal | 100 γ/animal | 50 γ/animal | – | – | – | – | – | – | – | –
CCCC1O[C@@H]2C[C@H]3[C@@H]4CCC5=CC(=O)C=C[C@]5(C)[C@H]4[C@@H](O)C[C@]3(C)[C@]2(C(=O)COC(=O)c2cc3ccccc3o2)O1 (single isomer, unassigned) [28 B] | – | – | – | 35 | 60 | > 11.7 | > 20.0 | – | – | – | –
CCCCC(=O)OCC(=O)[C@@]12OC(C)O[C@@H]1C[C@H]1[C@@H]3CCC4=CC(=O)C=C[C@]4(C)[C@@]3(F)[C@@H](O)C[C@@]12C (single isomer, unassigned) [18 A] | < 3 γ/animal | 33 γ/animal | 70 γ/animal | 33 | 70 | > 11.0 | > 23.3 | – | – | – | –
CCCCCC1O[C@@H]2C[C@H]3[C@@H]4CCC5=CC(=O)C=C[C@]5(C)[C@@]4(F)[C@@H](O)C[C@]3(C)[C@]2(C(=O)CO)O1 (single isomer, unassigned) [5 B] | 10 γ/animal | > 270 γ/animal | 90 γ/animal | – | – | – | – | – | – | – | –
CCCCC(=O)OCC(=O)[C@@]12OC(CCC)O[C@@H]1C[C@H]1[C@@H]3CCC4=CC(=O)C=C[C@]4(C)[C@@]3(F)[C@@H](O)C[C@@]12C (single isomer, unassigned) [22 A] | < 3 γ/animal | 33 γ/animal | 90 γ/animal | 33 | 90 | > 11.0 | > 30.0 | – | – | – | –
CC1(C)O[C@@H]2C[C@H]3[C@@H]4CCC5=CC(=O)C=C[C@]5(C)[C@@]4(F)[C@@H](O)C[C@]3(C)[C@]2(C(=O)CO)O1 [Triamcinolone acetonide, reference compound] | – | 100 γ/animal | 70 γ/animal | – | – | – | – | – | – | heavy decrease | heavy decrease
